Key:
[1] = Storage stability of nanoemulsion formulations; format: physicochemical; settings: concentration up to 5 mg/ml, at both 4° C. and room temperature
Description: The poor […] of these compounds is due to the presence of a di-fatty acid structure, which causes them to be too hydrophobic. […] Nanoemulsion formulations prepared with a concentration of up to 5 mg/ml of cisplatin mono-myristate, cisplatin mono-palmitate, and cisplatin mono-stearate were stable at both 4° C. and room temperature for approximately 3 months.

[2] = tested on: SKOV3 human ovary cancer cells; assay: Therapeutic efficacy in vivo against SKOV3 tumors in Nu/Nu mice
Description: The therapeutic efficacy of the Pt (II) complex against cancer was examined in vivo according to the following procedure, the results of which can be seen both in Table III and in graphical form in FIG. 4. To develop orthotropic tumors, 30 Nu/Nu female mice, each weighing approximately 20 g (Charles River Laboratories, Cambridge, Mass.), were injected intraperitoneally (ip) with 1×10^6 SKOV3 human ovary cancer cells (American Type Culture Collection (ATCC), Manassas, Va.) suspended in phosphate buffered saline. Animals were then dosed with nothing (control group) or test compounds. […] Cisplatin was administered to mice as a comparative sample and its effectiveness was also examined. The doses of Pt-MMA (21 mg/kg) and cis-Platin (5 mg/kg) were calculated so that animals received equivalent amounts of Pt. Dosing began 39 days after tumor injection in cells when the tumors had reached a volume of 150 mm^3-200 mm^3 measured with a ruler.
Control or platinum compound treatment was administered on the 39th, 46th, 53th, 60th, and 66th day after initial tumor injections. The survival time of each group of mice was determined and the median survival time (days) was estimated on the basis of the observed survival time of each mouse. The therapeutic effectiveness of the Pt (II) complex is represented by the median survival significance compared to control (P-Value).

[3] = cisplatin 5 mg/kg, Pt-MMA 21 mg/kg

cis-Diamine Pt (II) Chloride Monopalmitic Acid [Cisplatin-mono palmitate]
Time nanoemulsion formulations were stable [1]: approximately 3 months

N.N.[Cl][Pt][Cl] [Cisplatin, Cis-dichlorodiammine Pt (II)]
median survival compared to control group (in words) [2]: not significantly improved | Average Tumor Size at 21 Days ([2]; 21 days, cisplatin 5 mg/kg, Pt-MMA 21 mg/kg): 640 ± 314 mm^3 | Average Tumor Starting Size ([2]; at start of dosing (day 39 after tumor injection)): 171 ± 43 mm^3 | Median Survival [2, 3]: 28 days | Time for First Tumor to Reach 1000 mm^3 [2, 3]: 17 days | Median Survival Significance Compared to Control (P-Value) ([2]; compared to control group): 0.0606

cis-Diamine Pt (II) Chloride Monostearic Acid [Cisplatin-mono stearate]
Time nanoemulsion formulations were stable [1]: approximately 3 months

CCCCCCCCCCCCCC(=O)[O][Pt]([NH2])([NH2])[Cl] [Cisplatin-mono myristate, cis-Diamine Pt (II) Chloride Monomyristic Acid]
Time nanoemulsion formulations were stable [1]: approximately 3 months
